{
  "source": "ChEMBL document CHEMBL5620362",
  "about": "(Eur J Med Chem, 2023)",
  "key": {"[1]": {"tested_on": "HPAF-II", "experiment": "Antitumor activity against human HPAF-II cells measured after 72 hrs", "type": "functional, cell-based"}, "[2]": {"tested_on": "HPAF-II", "experiment": "Induction of apoptosis in human HPAF-II cells assessed as late apoptotic cells at 10 uM incubated for 48 hrs by Annexin V-FITC/PI staining based flow cytometry (reference value: 1.28 %)", "type": "functional"}, "[3]": {"tested_on": "HPAF-II", "experiment": "Induction of apoptosis in human HPAF-II cells assessed as early apoptotic cells at 1 uM incubated for 48 hrs by Annexin V-FITC/PI staining based flow cytometry (reference value: 0.90 %)", "type": "functional"}, "[4]": {"tested_on": "HPAF-II", "experiment": "Induction of apoptosis in human HPAF-II cells assessed as necrotic cells at 0.1 uM incubated for 48 hrs by Annexin V-FITC/PI staining based flow cytometry (reference value: 8.09 %)", "type": "functional"}, "[5]": {"tested_on": "HPAF-II", "experiment": "Induction of apoptosis in human HPAF-II cells assessed as viable cells at 0.01 uM incubated for 48 hrs by Annexin V-FITC/PI staining based flow cytometry (reference value: 89.73 %)", "type": "functional", "details": "read-out: Activity"}, "[6]": {"tested_on": "HPAF-II", "experiment": "Induction of apoptosis in human HPAF-II cells assessed as early apoptotic cells at 0.01 uM incubated for 48 hrs by Annexin V-FITC/PI staining based flow cytometry (reference value: 0.90 %)", "type": "functional"}, "[7]": {"tested_on": "HPAF-II", "experiment": "Induction of apoptosis in human HPAF-II cells assessed as late apoptotic cells at 0.01 uM incubated for 48 hrs by Annexin V-FITC/PI staining based flow cytometry (reference value: 1.28 %)", "type": "functional"}, "[8]": {"tested_on": "HPAF-II", "experiment": "Induction of apoptosis in human HPAF-II cells assessed as necrotic cells at 0.01 uM incubated for 48 hrs by Annexin V-FITC/PI staining based flow cytometry (reference value: 8.09 %)", "type": "functional"}, "[9]": {"tested_on": "NCI-H23", "experiment": "Induction of apoptosis in human NCI-H23 cells assessed as viable cells at 10 uM incubated for 48 hrs by Annexin V-FITC/PI staining based flow cytometry (reference value: 92.16 %)", "type": "functional", "details": "read-out: Activity"}, "[10]": {"tested_on": "NCI-H23", "experiment": "Induction of apoptosis in human NCI-H23 cells assessed as late apoptotic cells at 10 uM incubated for 48 hrs by Annexin V-FITC/PI staining based flow cytometry (reference value: 2.89 %)", "type": "functional"}, "[11]": {"tested_on": "NCI-H23", "experiment": "Induction of apoptosis in human NCI-H23 cells assessed as necrotic cells at 10 uM incubated for 48 hrs by Annexin V-FITC/PI staining based flow cytometry (reference value: 0.78 %)", "type": "functional"}, "[12]": {"tested_on": "NCI-H23", "experiment": "Induction of apoptosis in human NCI-H23 cells assessed as viable cells at 1 uM incubated for 48 hrs by Annexin V-FITC/PI staining based flow cytometry (reference value: 92.16 %)", "type": "functional", "details": "read-out: Activity"}, "[13]": {"tested_on": "NCI-H23", "experiment": "Induction of apoptosis in human NCI-H23 cells assessed as late apoptotic cells at 1 uM incubated for 48 hrs by Annexin V-FITC/PI staining based flow cytometry (reference value: 2.89 %)", "type": "functional"}, "[14]": {"tested_on": "NCI-H23", "experiment": "Induction of apoptosis in human NCI-H23 cells assessed as early apoptotic cells at 0.1 uM incubated for 48 hrs by Annexin V-FITC/PI staining based flow cytometry (reference value: 4.17 %)", "type": "functional"}, "[15]": {"tested_on": "NCI-H23", "experiment": "Induction of apoptosis in human NCI-H23 cells assessed as necrotic cells at 0.1 uM incubated for 48 hrs by Annexin V-FITC/PI staining based flow cytometry (reference value: 0.78 %)", "type": "functional"}, "[16]": {"tested_on": "NCI-H23", "experiment": "Induction of apoptosis in human NCI-H23 cells assessed as viable cells at 0.01 uM incubated for 48 hrs by Annexin V-FITC/PI staining based flow cytometry (reference value: 92.16 %)", "type": "functional", "details": "read-out: Activity"}, "[17]": {"tested_on": "NCI-H23", "experiment": "Induction of apoptosis in human NCI-H23 cells assessed as early apoptotic cells at 0.01 uM incubated for 48 hrs by Annexin V-FITC/PI staining based flow cytometry (reference value: 4.17 %)", "type": "functional"}, "[18]": {"tested_on": "NCI-H23", "experiment": "Induction of apoptosis in human NCI-H23 cells assessed as necrotic cells at 0.01 uM incubated for 48 hrs by Annexin V-FITC/PI staining based flow cytometry (reference value: 0.78 %)", "type": "functional"}, "[19]": {"tested_on": "EOL1", "experiment": "Anticancer activity against human EOL1 cells incubated for 72 hrs", "type": "functional, cell-based"}, "[20]": {"tested_on": "MV4-11", "experiment": "Anticancer activity against human MV4-11 cells incubated for 72 hrs", "type": "functional, cell-based"}, "[21]": {"tested_on": "A549", "experiment": "Anticancer activity against human A549 cells incubated for 72 hrs", "type": "functional, cell-based"}, "[22]": {"tested_on": "NCI-H23", "experiment": "Anticancer activity against human NCI-H23 cells incubated for 72 hrs", "type": "functional, cell-based"}, "[23]": {"tested_on": "SW1573", "experiment": "Anticancer activity against human SW1573 cells incubated for 72 hrs", "type": "functional, cell-based"}, "[24]": {"tested_on": "BXPC-3", "experiment": "Anticancer activity against human BXPC-3 cells incubated for 72 hrs", "type": "functional, cell-based"}, "[25]": {"tested_on": "MIA PaCa-2", "experiment": "Anticancer activity against human MIA PaCa-2 cells incubated for 72 hrs", "type": "functional, cell-based"}, "[26]": {"tested_on": "NCI-H358", "experiment": "Induction of apoptosis in human NCI-H358 cells 1 uM incubated for 48 hrs by Annexin V-FITC/PI staining based flow cytometry", "type": "functional, cell-based"}, "[27]": {"tested_on": "HPAF-II", "experiment": "Induction of apoptosis in human HPAF-II cells assessed as reduction in MCL-1 level at 0.1 to 1 uM incubated for 48 hrs by Western blot analysis", "type": "functional, cell-based", "details": "dose 0.1-1 µM"}, "[28]": {"tested_on": "HPAF-II", "experiment": "Induction of apoptosis in human HPAF-II cells assessed as increase in cleaved PARP level at 0.1 to 1 uM incubated for 48 hrs by Western blot analysis", "type": "functional, cell-based", "details": "dose 0.1-1 µM"}, "[29]": {"tested_on": "HPAF-II", "experiment": "Downregulation of phosphorylated ERK expression in human HPAF-II cells at 0.1 to 1 uM incubated for 48 hrs by Western blot analysis", "type": "functional, cell-based", "details": "dose 0.1-1 µM"}, "[30]": {"tested_on": "MIA PaCa-2", "experiment": "Inhibition of colony formation in human MIA PaCa-2 cells harboring siROR-gamma 0.1 uM incubated for 6 to 7 days by crystal violet staining based analysis", "type": "functional, cell-based", "details": "time 6-7 day"}, "[31]": {"tested_on": "HPAF-II", "experiment": "Downregulation of AKT phosphorylation level in human HPAF-II cells harboring siROR-gamma at 0.1 uM by Western blot analysis", "type": "functional, cell-based"}, "[32]": {"experiment": "AUC (infinity) in ICR mouse at 3 mg/kg, iv", "type": "ADME, organism-based", "details": "in vivo"}, "[33]": {"experiment": "MRT (infinity) in ICR mouse at 3 mg/kg, iv", "type": "ADME, organism-based", "details": "in vivo"}, "[34]": {"experiment": "Clearance in ICR mouse at 3 mg/kg, iv", "type": "ADME, organism-based", "details": "in vivo"}, "[35]": {"experiment": "Cmax in ICR mouse at 10 mg/kg, po", "type": "ADME, organism-based", "details": "in vivo"}, "[36]": {"experiment": "AUClast in ICR mouse at 10 mg/kg, po", "type": "ADME, organism-based", "details": "in vivo"}, "[37]": {"experiment": "AUC (infinity) in ICR mouse at 10 mg/kg, po", "type": "ADME, organism-based", "details": "in vivo"}, "[38]": {"experiment": "Oral bioavailability in ICR mouse at 10 mg/kg", "type": "ADME, organism-based", "details": "in vivo"}, "[39]": {"tested_on": "HPAF-II", "experiment": "Antitumor activity against human HPAF-II cells xenografted in nude Balb/cA mouse assessed as tumor growth inhibition at 90 mg/kg, po qd measured for 12 days relative to control", "type": "functional", "parameters": "scale not given: the % may be the effect or the level left", "details": "time 12 day"}, "[40]": {"experiment": "Toxicity in nude Balb/cA mouse xenografted with human HPAF-II cells assessed as body weight loss at 90 to 180 mg/kg, po qd measured for 12 days", "type": "organism-based", "details": "in vivo, 288 h, dose 90-180 mg/kg, time 12 day"}, "[41]": {"experiment": "Toxicity in nude Balb/cA mouse xenografted with human HPAF-II cells assessed as body weight loss at 15 mg/kg, ip qd measured for 12 days", "type": "organism-based", "details": "in vivo, 288 h, time 12 day"}},
  "note": "Active and inactive are the calls of the source. The calls are words filed in the database; no cut-off is given here.",
  "data": [
    {"smiles": "C=C(C)[C@@H]1CC[C@]2(C(=O)NCCCN(C)C)CC[C@]3(C)[C@H](CC[C@@H]4[C@@]5(C)CC[C@H](O)C(C)(C)[C@@H]5CC[C@]43C)[C@@H]12", "values": [
      {"measurement": "IC50", "setting": "[1]", "value": 90, "unit": "nM"},
      {"measurement": "Activity", "setting": "[2]", "value": 42.77, "unit": "%"},
      {"measurement": "Activity", "setting": "[3]", "value": 39.49, "unit": "%"},
      {"measurement": "Activity", "setting": "[4]", "value": 4.85, "unit": "%"},
      {"measurement": "viability at 0.01 µM", "setting": "[5]", "value": 82.6, "unit": "%"},
      {"measurement": "Activity", "setting": "[6]", "value": 5.34, "unit": "%"},
      {"measurement": "Activity", "setting": "[7]", "value": 4.48, "unit": "%"},
      {"measurement": "Activity", "setting": "[8]", "value": 7.52, "unit": "%"},
      {"measurement": "viability at 10 µM", "setting": "[9]", "value": 6.54, "unit": "%"},
      {"measurement": "Activity", "setting": "[10]", "value": 28.83, "unit": "%"},
      {"measurement": "Activity", "setting": "[11]", "value": 0.61, "unit": "%"},
      {"measurement": "viability at 1 µM", "setting": "[12]", "value": 12.7, "unit": "%"},
      {"measurement": "Activity", "setting": "[13]", "value": 18.15, "unit": "%"},
      {"measurement": "Activity", "setting": "[14]", "value": 3.45, "unit": "%"},
      {"measurement": "Activity", "setting": "[15]", "value": 4.71, "unit": "%"},
      {"measurement": "viability at 0.01 µM", "setting": "[16]", "value": 86.3, "unit": "%"},
      {"measurement": "Activity", "setting": "[17]", "value": 4.06, "unit": "%"},
      {"measurement": "Activity", "setting": "[18]", "value": 2.81, "unit": "%"},
      {"measurement": "Activity", "setting": "[19]", "value": "Active"},
      {"measurement": "Activity", "setting": "[20]", "value": "Active"},
      {"measurement": "Activity", "setting": "[21]", "value": "Active"},
      {"measurement": "Activity", "setting": "[22]", "value": "Active"},
      {"measurement": "Activity", "setting": "[23]", "value": "Active"},
      {"measurement": "Activity", "setting": "[24]", "value": "Active"},
      {"measurement": "Activity", "setting": "[25]", "value": "Active"},
      {"measurement": "Activity", "setting": "[26]", "value": "Active"},
      {"measurement": "Activity", "setting": "[27]", "value": "Active"},
      {"measurement": "Activity", "setting": "[28]", "value": "Active"},
      {"measurement": "Activity", "setting": "[29]", "value": "Active"},
      {"measurement": "inhibition", "setting": "[30]", "value": "inactive"},
      {"measurement": "Activity", "setting": "[31]", "value": "Active"},
      {"measurement": "AUC(0-inf)", "setting": "[32]", "value": 3050, "unit": "ng·h/mL"},
      {"measurement": "MRT inf", "setting": "[33]", "value": 5.22, "unit": "h"},
      {"measurement": "clearance", "setting": "[34]", "value": 16.5, "unit": "mL/min/kg"},
      {"measurement": "Cmax", "setting": "[35]", "value": 114, "unit": "ng/mL"},
      {"measurement": "AUC(0-t)", "setting": "[36]", "value": 1670, "unit": "ng·h/mL"},
      {"measurement": "AUC(0-inf)", "setting": "[37]", "value": 2050, "unit": "ng·h/mL"},
      {"measurement": "bioavailability", "setting": "[38]", "value": 16.8, "unit": "%"},
      {"measurement": "Activity", "setting": "[39]", "value": 21, "unit": "%"},
      {"measurement": "Activity", "setting": "[40]", "value": "Non-Toxic"},
      {"measurement": "Activity", "setting": "[41]", "value": 19, "unit": "%"}
    ]}
  ]
}
